Measurements taken from patent publication US10188710B2, “Regulatory T cell epitope and hepatitis C virus homolog” (Rhode Island Council on Postsecondary Education, priority 2013, dated 2019).
“Also recorded” adds a separate entry of the source.

Tests used:
Format in all cases: cell-based, human
[1] = test system: PBMCs derived from HCV-infected (Ab+VL+) patients; test: CD3+CD4+FoxP3+ cell induction in PBMC cultures from HCV-infected patients (flow cytometry); conditions: 10 μg/ml peptide, 5 days; for increase in CD3+CD4+FoxP3+ cells: PBMCs from Ab+VL+ patients, vs medium alone
From the text: (§1) HCV-seropositive subjects with persistent viremia (Ab^+VL^+), patients who spontaneously resolved infection (Ab^+VL^−) and HCV-seronegative, non-infected (Ab^−VL^−) individuals were recruited from the Rhode Island Adult Corrections Institution (ACI) to participate in this study. Recruitment methods and the population are described elsewhere. The Institutional Review Boards of the Miriam Hospital, Rhode Island Department of Corrections and Office of Human Research Protection approved this study. All HCV infected subjects included in these analyses were infected with HCV genotype 1a or 1b (Versant HCV genotype assay 2, Siemens Healthcare Diagnostics Inc.). Hartford Hospital Transplantation Research Laboratory (Hartford, Conn.) and the Cellular Mediated Immunology Core Laboratory at the University of Rhode Island (Providence, R.I.) performed HLA typing.
Cryopreserved PBMCs were thawed; suspended in HEPES-buffered RPMI1640 medium supplemented with 10% HuAB serum (Valley Biomedical, Winchester, Va.), glutamine, 100 U/ml penicillin and 100 μg/ml streptomycin; and rested overnight at 37° C. in a humidified, CO2 incubator. On the following day, the PBMCs were centrifuged and resuspended in fresh medium containing 5% HuAB serum; 1×10^6 cells/nil were transferred to deep, flat-bottom, non-treated 48-well plates. The peptide sequence indicated in the text was added (10 μg/ml final concentration) and the cells were incubated for 5 days. PBMCs cultured in the presence of medium with 0.1% DMSO served as a negative control. Half the spent medium was replaced on day 3. The cells were collected for analysis on day 5.
The cells collected after 5 days incubation were quantified and characterized in accordance with methods we described previously. Dye-conjugated mouse monoclonal antibodies specific for the following determinants were purchased from BioLegend (San Diego, Calif.) and used: CD3, CD4 (clone OKT4), CD8a (clone HIT8a); CD39 (clone A1), and CD304 (clone 14H4); anti-human CD25 (clone M-A251) and anti-human FoxP3 (clone 236a) were purchased BD Biosciences (San Jose, Calif.). Data were collected on a 4 laser (13 color capability) BD LSRII Flow Cytometer (BD Biosciences, San Jose, Calif.) and analyzed using FlowJo software (Tree Star, Inc., Ashland, Oreg.). All analyses were conducted using the appropriate isotype controls to correct for non-specific staining PBMCs were cultured in the presence of medium alone, 10 μg/ml HCV_G1_p7_794, or 10 μg/ml HCV_G1_NS4b_1941.
The results were analyzed using the SigmaStat statistics program (Aspire Software International). Individual means were compared using a non-paired Student's t test or a Mann-Whitney Rank Sum test.
The cells were collected after 5 days incubation and analyzed by flow cytometry (FIGS. 1A-1C). The CD3+CD4+FoxP3+ cells were further characterized by the expression of CD25 and CD39 (FIG. 1B). The gating scheme and representative analyses are shown.

[2] = test system: PBMCs derived from non-infected (Ab-VL-) individuals; test: CD3+CD4+FoxP3+ cell induction in PBMC cultures from non-infected individuals (flow cytometry); conditions: 10 μg/ml peptide, 5 days
From the text: as §1, with “typing. […]” for “typing.”
The cells collected after 5 days incubation were quantified and characterized in accordance with methods we described previously. […] Data were collected on a 4 laser (13 color capability) BD LSRII Flow Cytometer (BD Biosciences, San Jose, Calif.) and analyzed using FlowJo software (Tree Star, Inc., Ashland, Oreg.). […]
The results were analyzed using the SigmaStat statistics program (Aspire Software International). […]

[3] = test system: CFSE-labeled Ab+VL+ PBMCs; test: CFSE proliferation assay with or without anti-CD3
Description: For proliferation assays, cells rested overnight were labeled with carboxyfluorescein diacetate, succinimidyl ester (CFSE: Life Technologies Corporation, Carlsbad, Calif.) prior to culture in the presence or absence of 30 ng/ml anti-CD3 monoclonal antibody (clone HIT3a; BioLegend, San Diego, Calif.) and 10 μg/ml HCV_G1_p7_794. Cell proliferation was evaluated by flow cytometric analysis according to the protocol provided by Life Technologies in which a loss in fluorescence intensity correlates directly with the extent of replication.
The hallmark of CD3^+CD4^+FoxP3^+ Treg cells is suppressor activity. CSFE-labeled, Ab^+VL^+ PBMCs were cultured with medium alone or medium that contained 30 ng/ml anti-CD3, 10 μg/ml HCV_G1_p7_794 or a combination of anti-CD3 and HCV_G1_p7_794. After 5 days incubation, the cells were collected and proliferation the total (FIG. 3BA) and CD3^+CD4^+ (FIG. 3B) PBMC populations was estimated by flow cytometry. Data were obtained in a single experiment representative of the results obtained for PBMCs derived from six HCV-infected patients.

Row | Sequence | increase in CD3+CD4+FoxP3+ cells [1] | increase in CD3+CD4+FoxP3+ cells [2] | increase in CD3+CD4+FoxP3+ cells ([2]; vs medium alone) | CD25 and CD39 expression by induced CD3+CD4+FoxP3+ cells ([1]; Ab+VL+ PBMCs) | CD304 (neuropilin) expression by CD4+FoxP3+ cells ([1]; Ab+VL+ PBMCs) | effect on proliferative response to anti-CD3 monoclonal antibody ([3]; 30 ng/ml anti-CD3 plus 10 μg/ml peptide, 5 days, total or CD3+CD4+ population) | effect on proliferation of CD3+CD4+ T cells ([3]; 10 μg/ml peptide alone, no anti-CD3, 5 days)
1 | AARVTQILSSL TITQLLKRLHQWI [HCV_G1_NS4b_1941, reference compound] | failed to promote an increase |  |  |  |  |  | 
2 | ISGIQYLAGLSTLPGNPA [HCV_G1_NS4b_1769, reference compound] | failed to elicit a CD3+CD4+FoxP3+ cell response |  |  |  |  |  | 
3 | PLLLLLLSLPPRA [Human p7_794] | significant increase | three | significant increase |  |  |  | 
4 | WPLLLLLLALPQRAYAQ (Hepatitis C virus) [HCV_G1_p7_794] | marked increase |  |  | expressed both CD25; also recorded: vast majority of these cells expressed CD39 | vast majority of CD4^+FoxP3^+ cells among Ab^+VL^+ PBMCs cultured in the presence of HCV_G1_p7_794 were CD304-negative; also recorded: only a minority | reproducible, albeit slight, decrease | no effect
